We go through 6 compounds from PubChem BioAssay (NCI).

Common to all, as to experiment: inhibition of tumour cell growth, NCI panel, 48 h
For test [1], the system named is HS 578T breast.
The subject of test [2] is A549 NSCLC.
For test [3], the system named is NCI-H460 lung.
Test [4] relates to SK-MEL-28 melanoma.
Test [5] has as its system SK-MEL-5 melanoma.
The test system of test [6] is U251 CNS.
The subject of test [7] is M14 melanoma.
In test [8] the test system is NCI-H522 lung.
Test [9] has as its system BT-549 breast.
The subject of test [10] is NCI-H226 lung.

SMILES strings stand for the structures.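 48-hour exposure; five concentrations; linearly interpolated endpoints. The concentration for 50% growth inhibition is given as GI50. Definition used: TGI = concentration required for complete inhibition of growth.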 Bounds are passed on as bounds.

On to `CO/N=C(\C)COc1ccc2c(=O)c(-c3ccccc3)coc2c1`, for which the GI50 in test [1] is 63.1 µM; in test [2], 27.1 µM; in test [3] it was 30.4 µM; in test [4], more than 100 µM; in [5] it was more than 100 µM; in test [6], 32.2 µM. The GI50 is 93.7 µM in test [7], 22.2 µM in [8], 18 µM in test [9] and 36.4 µM in test [10]. Besides, the TGI in [1], in test [2], in test [3], in [4], in test [5] and in test [6] was more than 100 µM throughout. Also, the TGI is more than 100 µM in test [7], 79 µM in test [8], 38.8 µM in test [9] and more than 100 µM in [10].

Turning to `CCOC(=O)C(O)(NC(=O)c1ccccc1F)C(F)(F)F` (centres undefined), the TGI in test [1], in test [2], in test [4], in [5], in test [6] and in [7] was more than 100 µM throughout. Besides, the TGI in test [8], in test [9] and in test [10] was more than 100 µM each time.

Turning to `N#Cc1c(N)sc2c1-c1ccccc1OC2`, the TGI in test [2], in [3], in [4], in [5], in [6] and in [7] was more than 100 µM throughout. The TGI in test [9] and in test [10] was more than 100 µM throughout.

Regarding `COc1cc(C2C(C(=O)O)=C(COC(C)=O)Oc3cc4c(cc32)OCO4)cc(OC)c1OC` (centres undefined), the TGI in test [2], in [3], in [4], in [5], in test [6] and in test [7] was more than 100 µM each time.

As to `CCc1ccc2nc(-c3ccc(O)cc3)sc2c1`, the TGI in test [2] stood at 44.9 µM; in test [3], 41.3 µM; in [5], 34.6 µM; in test [6], 33.6 µM; in [7], 35.5 µM; in test [8], 18.3 µM. Further, the TGI in test [9] was determined as 31.1 µM; in test [10] it was 30.1 µM.

Consider `CN(C)c1ccc(C(Cc2ccc3ccccc3n2)Cc2ccc3ccccc3n2)cc1`, for which the GI50 in [1] is 6.22 µM; in test [3] it was 3.14 µM; in [8], 3.4 µM; in test [10], 4.4 µM. The TGI in test [1], in test [3], in [8] and in test [10] was more than 100 µM each time.
